According to patent publication US20220054658A1, “CONJUGATES” (Transfection Holdings Limited, priority 2018, published 2022):
“Also recorded” adds a separate entry of the source.

Experiments:
[1] = test system: P. falciparum; test: Plasmodium falciparum testing: uptake by infected and non-infected red blood cells; assay type: cell-based; conditions: 25 μM, 45 minutes, 37° C., synchronised stage and mix-stage cultures
Experimental: Compounds 1, 5, 9, 10 and 11 were tested for uptake in both synchronised stage and mix-stage cultures at 25 μM concentrations.

[2] = test system: T. annulata; test: Theileria annulata testing: uptake; assay type: cell-based; conditions: 1 hour, 37° C.
Experimental: T. annulata were cultured using RPMI 1640 with 10% Albumax II (Thermo-Fisher) serum. A standard hemocytometer was used to calculate the concentration of cells in the parent culture. […] For each compound and concentration to be tested, 2 mL of the culture were centrifuged at 1,000 rpm for 5 minutes. The medium was removed before the cells were resuspended in 950 μL of complete medium containing the compound to be tested at the desired concentration. This was prepared from a 100 mM stock solution of compound in DMSO. Once the cells were resuspended they were transferred to a 5 well plate (1 mL capacity per well). They were then incubated for 1 hour at 37° C. in an atmosphere of 5% CO2 in air. After the incubations were complete the contents of each well were transferred to a 10 mL centrifuge tube. Cold RPMI 1640 (Thermofisher) or HBSS added to obtain a volume of 5 mL. The suspension was then centrifuged at 1,000 rpm and at 4° C. for 5 minutes. […] After the final washing the pellet of cells was resuspended in a minimum amount of RPMI 1640 and then spotted onto a glass slide. The slide was then covered with a cover slip and analysed using Olympus BX60 UV microscope system with a Spot RT3 camera and Spot Image software with a FITC fluorescent filter.

[3] = test system: M. tuberculosis strain H37Rv; test: Uptake test in M. tuberculosis; assay type: cell-based, Mycobacterium tuberculosis; conditions: 50 μg/mL (~80 μM), room temperature, 45 min

## CC1=CC(C)=[N+]2C1=Cc1ccc(CCCn3cc(CCNC(=O)/C=C/NC(=O)[C@@H]4OC(C)(C)OCC4(C)C)nn3)n1[B-]2(F)F [Compound 1, (R,E)-N-((((3-[4,4-Difluoro-5,7-dimethyl-4-bora-3a,4a-diaza-s-indacene-3-yl]propyl)-1H-1,2,3-triazol-4-yl)ethylamino)-3-oxoprop-1-enyl)-2,2,5,5-tetramethyl-1,3-dioxane-4-carboxamide]
[1]
  uptake by infected and non-infected red blood cells: not taken up either by infected nor non-infected red blood cells in every culture
[2]
  uptake in T. annulata: very limited uptake
[3]
  uptake in M. tuberculosis (fluorescence intensity / microscopy): preferred over their S counterparts; also recorded: highest fluorescence signals
